Key:
Format in all cases: in vivo
Lolium = assay: Pre-emergence test/Greenhouse, Lolium; details: after three weeks
Experimental: (§1) To produce a suitable preparation of the active compound, 1 part by weight of active compound is mixed with the stated amount of solvent, the stated amount of emulsifier is added and the concentrate is diluted with water to the desired concentration.
(§2) Seeds of the test plants are sown in normal soil. After about 24 hours, the soil is watered with the preparation of active compound. Advantageously, the amount of water per unit area is kept constant. The active compound concentration in the preparation is not important, only the active compound appliation rate per unit area matters.
(§3) After three weeks, the degree of damage to the plants is rated in % damage in comparison to the development of the untreated control.
(§4) 0%=no action (like untreated control)

Matricaria = assay: Pre-emergence test/Greenhouse, Matricaria; details: after three weeks
Experimental: as §1, §2, §3, §4

Solanum = assay: Pre-emergence test/Greenhouse, Solanum; details: after three weeks
Experimental: as §1, §2, §3, §4

Sorghum = assay: Pre-emergence test/Greenhouse, Sorghum; details: after three weeks
Experimental: as §1, §2, §3, §4

weeds = assay: Pre-emergence test (greenhouse), activity against weeds; details: in words
Experimental: Solvent: 5 parts by weight of acetone
Emulsifier: 1 part by weight of alkylaryl polyglycol ether
as §1, §2, §3, §4

Maize = assay: Pre-emergence test/Greenhouse, Maize; details: in vivo
Experimental: as §1, §2, §3, §4

Ambrosia = assay: Pre-emergence test/Greenhouse, Ambrosia; details: after three weeks
Experimental: as §1, §2, §3, §4

Poa = assay: Pre-emergence test/Greenhouse, Poa; details: after three weeks
Experimental: as §1, §2, §3, §4

Row | Structure (SMILES) | degree of damage to the plants (% damage vs untreated control), Lolium (Lolium; 60 g of ai./ha) [%] | degree of damage to the plants (% damage vs untreated control), Matricaria (Matricaria; 60 g of ai./ha) [%] | degree of damage to the plants (% damage vs untreated control), Solanum (Solanum; 60 g of ai./ha) [%] | activity against weeds (weeds) | degree of damage to the plants (% damage vs untreated control), Lolium (Lolium; 125 g of ai./ha) [%] | degree of damage to the plants (% damage vs untreated control), Matricaria (Matricaria; 125 g of ai./ha) [%] | degree of damage to the plants (% damage vs untreated control), Solanum (Solanum; 125 g of ai./ha) [%] | degree of damage to the plants (% damage vs untreated control), Maize (Maize) [%] | degree of damage to the plants (% damage vs untreated control), Sorghum (Sorghum; 125 g of ai./ha) [%] | degree of damage to the plants (% damage vs untreated control), Poa (Poa; 125 g of ai./ha) [%] | further results
1 | CCSc1nn(C(=O)NS(=O)(=O)c2c(C)csc2C(=O)OC(C)C)c(=O)n1C [Example 81] | 100 | 100 | 100 | very strong activity against weeds |  |  |  |  |  |  | degree of damage to the plants (% damage vs untreated control), Sorghum (Sorghum; 60 g of ai./ha): 95%
2 | COC(=O)c1cccc(C)c1S(=O)(=O)NC(=O)n1nc(SC)n(C2CC2)c1=O [Example 158] |  |  |  | very strong activity against weeds |  |  |  |  |  |  | 
3 | CCCOC(=O)c1scc(C)c1S(=O)(=O)NC(=O)n1nc(OCC)n(C)c1=O [Example 80] |  |  |  | very strong activity against weeds | 95 | 100 | 95 | 0 | 90 |  | 
4 | CCCOC(=O)c1scc(C)c1S(=O)(=O)NC(=O)n1nc(OC)n(C)c1=O [Example 89] |  |  |  | very strong activity against weeds | 100 | 100 | 100 | 0 | 90 |  | 
5 | COC(=O)c1scc(C)c1S(=O)(=O)NC(=O)n1nc(OC(C)C)n(C2CC2)c1=O [Example 53] |  |  |  | very strong activity against weeds | 95 | 95 | 95 | 0 |  | 95 | degree of damage to the plants (% damage vs untreated control), Ambrosia (Ambrosia; 125 g of ai./ha): 95%
6 | COc1nn(C(=O)NS(=O)(=O)c2c(C)csc2C(=O)OC(C)C)c(=O)n1C [Example 82] | 60 | 100 | 100 | very strong activity against weeds |  |  |  | 0 |  |  | degree of damage to the plants (% damage vs untreated control), Sorghum (Sorghum; 60 g of ai./ha): 90%
7 | CCOC(=O)c1scc(C)c1S(=O)(=O)NC(=O)n1nc(CC)n(C)c1=O [Example 66] |  |  |  | very strong activity against weeds | 100 | 100 | 100 | 0 | 100 |  | 
8 | CCOC(=O)c1scc(C)c1S(=O)(=O)NC(=O)n1nc(OC(C)C)n(C2CC2)c1=O [Example 70] | 90 | 100 | 100 | very strong activity against weeds |  |  |  | 10 |  |  | degree of damage to the plants (% damage vs untreated control), Ambrosia (Ambrosia; 60 g of ai./ha): 90%; degree of damage to the plants (% damage vs untreated control), Poa (Poa; 60 g of ai./ha): 90%
9 | CCOc1nn(C(=O)NS(=O)(=O)c2c(C)csc2C(=O)OC(C)C)c(=O)n1C1CC1 [Example 85] |  |  |  | very strong activity against weeds | 95 | 100 | 100 | 60 | 95 |  | 
10 | CCOC(=O)c1scc(C)c1S(=O)(=O)NC(=O)n1nc(OC)n(C)c1=O [Example 57] | 95 | 95 | 95 | very strong activity against weeds |  |  |  | 0 |  |  | degree of damage to the plants (% damage vs untreated control), Sorghum (Sorghum; 60 g of ai./ha): 95%; degree of damage to the plants (% damage vs untreated control), Poa (Poa; 60 g of ai./ha): 95%
11 | CCCc1nn(C(=O)NS(=O)(=O)c2c(C)csc2C(=O)OC(C)C)c(=O)n1C [Example 108] |  |  |  | very strong activity against weeds | 90 | 95 | 90 | 5 | 95 |  | 
12 | CCc1nn(C(=O)NS(=O)(=O)c2c(C)csc2C(=O)OC(C)C)c(=O)n1C [Example 77] | 95 | 100 | 90 | very strong activity against weeds |  |  |  | 0 |  |  | degree of damage to the plants (% damage vs untreated control), Sorghum (Sorghum; 60 g of ai./ha): 90%
13 | CCOC(=O)c1scc(C)c1S(=O)(=O)NC(=O)n1nc(OC(C)C)n(C)c1=O [Example 59] |  |  |  | very strong activity against weeds | 100 | 100 | 95 | 0 |  | 70 | degree of damage to the plants (% damage vs untreated control), Ambrosia (Ambrosia; 125 g of ai./ha): 95%
14 | CCOC(=O)c1scc(C)c1S(=O)(=O)NC(=O)c1noc(C)n1 [Example 72] |  |  |  | very strong activity against weeds | 90 | 100 | 100 | 10 |  | 70 | degree of damage to the plants (% damage vs untreated control), Ambrosia (Ambrosia; 125 g of ai./ha): 95%
15 | CCOC(=O)c1scc(C)c1S(=O)(=O)NC(=O)n1nc(OCC(F)(F)F)n(C)c1=O [Example 62] |  |  |  | very strong activity against weeds | 80 | 95 | 95 | 0 | 60 | 90 | 
16 | CCCOc1nn(C(=O)NS(=O)(=O)c2c(C)csc2C(=O)OCC)c(=O)n1C [Example 58] |  |  |  | very strong activity against weeds | 80 | 100 | 95 | 20 |  | 95 | 
17 | COC(=O)c1cccc(C)c1S(=O)(=O)NC(=O)c1ncc(C)o1 [Example 121] |  |  |  | very strong activity against weeds |  |  |  | 10 |  |  | degree of damage to the plants (% damage vs untreated control), Lolium (Lolium; 500 g of ai./ha): 70%; degree of damage to the plants (% damage vs untreated control), Matricaria (Matricaria; 500 g of ai./ha): 90%; degree of damage to the plants (% damage vs untreated control), Solanum (Solanum; 500 g of ai./ha): 95%; degree of damage to the plants (% damage vs untreated control), Sorghum (Sorghum; 500 g of ai./ha): 80%
18 | CCCOc1nn(C(=O)NS(=O)(=O)c2c(C)csc2C(=O)OC)c(=O)n1C [Example 33] |  |  |  | very strong activity against weeds |  | 95 | 95 | 10 | 80 | 90 | degree of damage to the plants (% damage vs untreated control), Ambrosia (Ambrosia; 125 g of ai./ha): 90%
19 | CCOC(=O)c1scc(C)c1S(=O)(=O)NC(=O)n1nc(C)n(C)c1=O [Example 65] |  |  |  | very strong activity against weeds | 80 | 95 | 95 | 20 | 80 | 80 | 
20 | CCCOC(=O)c1scc(C)c1S(=O)(=O)NC(=O)n1nc(OCC)n(C2CC2)c1=O [Example 93] | 90 | 95 | 90 | very strong activity against weeds |  |  |  | 0 |  |  | degree of damage to the plants (% damage vs untreated control), Sorghum (Sorghum; 60 g of ai./ha): 80%
21 | CCCc1nn(C(=O)NS(=O)(=O)c2c(C)csc2C(=O)OCC)c(=O)n1C [Example 67] | 100 | 100 | 100 | very strong activity against weeds |  |  |  | 0 |  |  | degree of damage to the plants (% damage vs untreated control), Sorghum (Sorghum; 60 g of ai./ha): 90%

— US6441195B1, “Substituted sulphonylamino(thio) carbonyl compounds” (Bayer Aktiengesellschaft, priority 1995, dated 2002)
